Experimental data as given in patent US6737383B1, “Herbicidal oxadiazolidines” (priority 1999, dated 2004).

Legend:
crabgrass = test: Test B pre/postemergence crabgrass; assay type: in vivo, Digitaria sanguinalis
In short: (§1)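 Response is a visual 0-to-10 score relative to untreated plants, where 0 means no effect and 10 means complete control, taken twelve to sixteen days after application. Treatments went onto soil at planting and onto foliage of 1- to 4-leaf plants, using a surfactant-containing non-phytotoxic solvent.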

purple nutsedge = test: Test B pre/postemergence purple nutsedge; assay type: in vivo, Cyperus rotundus
In short: as §1

duck salad = test: Test B flood test duck salad; assay type: in vivo, Heteranthera limosa
In short: (§2)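 Read-out is a visual response score from 0 (no effect) to 10 (complete control), assigned by comparison with untreated controls. Treatment was applied at the 2-leaf stage, and plants stayed in the greenhouse for twelve to sixteen days before scoring.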

bamyardgrass = test: Test B flood test barnyardgrass; assay type: in vivo, Echinochloa crus-galli
In short: as §2

[1] = Preemergence, Rate 62 g/ha, scale of 0 to 10 where 0 is no effect and 10 is complete control
[2] = Preemergence, Rate 250 g/ha, scale of 0 to 10 where 0 is no effect and 10 is complete control
[3] = Preemergence, Rate 500 g/ha, scale of 0 to 10 where 0 is no effect and 10 is complete control
[4] = Rate 62 g/ha, Postemergence, scale of 0 to 10 where 0 is no effect and 10 is complete control
[5] = Rate 125 g/ha, Postemergence, scale 0 to 10
[6] = Rate 125 g/ha, Preemergence, scale of 0 to 10 where 0 is no effect and 10 is complete control
[7] = Rate 500 g/ha, Postemergence, scale 0 to 10, 0 no effect, 10 complete control
[8] = Rate 62 g/ha, headed Pre-emergence (flood test species), scale 0 to 10 (0 no effect, 10 complete control)
[9] = Rate 125 g/ha, Pre-emergence, flood test species, scale 0 to 10 where 0 is no effect and 10 is complete control
[10] = Rate 250 g/ha, Pre-emergence, flood-test species, scale 0 to 10, 0 is no effect, 10 is complete control
[11] = Rate 500 g/ha, Pre-emergence, flood test species, scale 0 to 10 (0 no effect, 10 complete control)
[12] = Rate 62 g/ha, Postemergence, scale 0 to 10, 0 no effect, 10 complete control
[13] = Rate 125 g/ha, Postemergence, scale of 0 to 10 where 0 is no effect and 10 is complete control
[14] = Rate 250 g/ha, Postemergence, scale of 0 to 10 where 0 is no effect and 10 is complete control

## COCCOCn1c(=O)on(C(=O)N(c2ccc(F)cc2)C(C)C)c1=O [Compound 220]
crabgrass; [1]
  Crabgrass plant response rating: 7
crabgrass; [2]
  Crabgrass plant response rating: 8
crabgrass; [3]
  Plant response rating, Crabgrass: 10
crabgrass; [4]
  Crabgrass plant response rating: 3
crabgrass; [5]
  Crabgrass plant response rating: 5
crabgrass; [6]
  Crabgrass plant response rating: 7
crabgrass; Rate 250 g/ha, Postemergence
  Plant response rating (0 to 10; 0 is no effect, 10 is complete control), Crabgrass: 7
crabgrass; [7]
  Crabgrass plant response rating: 9
Purple nutsedge; [4]
  Nutsedge plant response rating: 0
Purple nutsedge; [5]
  Nutsedge plant response rating: 0
Purple nutsedge; Rate 250 g/ha, Postemergence
  Plant response rating (0 to 10; 0 is no effect, 10 is complete control), Nutsedge: 0
Purple nutsedge; [7]
  Nutsedge plant response rating: 0
Duck salad; [8]
  Ducksalad plant response rating: 0
Duck salad; [9]
  Ducksalad plant response rating: 0
Duck salad; [10]
  Ducksalad plant response rating: 0
Duck salad; [11]
  Ducksalad plant response rating: 0
bamyardgrass; [8]
  Barnyardgrass plant response rating: 0
bamyardgrass; [9]
  Barnyardgrass plant response rating: 0
bamyardgrass; [10]
  Barnyardgrass plant response rating: 2
bamyardgrass; [11]
  Barnyardgrass plant response rating: 3

## Cc1cc(C)c(-n2c(=O)on(C(=O)N(c3ccc(F)cc3)C(C)C)c2=O)c(Br)c1 [Compound 224]
crabgrass; [1]
  Crabgrass plant response rating: 2
crabgrass; [2]
  Crabgrass plant response rating: 9
crabgrass; [3]
  Plant response rating, Crabgrass: 10
crabgrass; [4]
  Crabgrass plant response rating: 0
crabgrass; [5]
  Crabgrass plant response rating: 0
crabgrass; [6]
  Crabgrass plant response rating: 5
crabgrass; Rate 250 g/ha, Postemergence
  Plant response rating (0 to 10; 0 is no effect, 10 is complete control), Crabgrass: 3
crabgrass; [7]
  Crabgrass plant response rating: 0
Purple nutsedge; [1]
  Nutsedge plant response rating: 0
Purple nutsedge; [4]
  Nutsedge plant response rating: 0
Purple nutsedge; [5]
  Nutsedge plant response rating: 0
Purple nutsedge; Rate 250 g/ha, Postemergence
  Plant response rating (0 to 10; 0 is no effect, 10 is complete control), Nutsedge: 0
Purple nutsedge; [7]
  Nutsedge plant response rating: 0
Duck salad; [8]
  Ducksalad plant response rating: 0
Duck salad; [9]
  Ducksalad plant response rating: 0
Duck salad; [10]
  Ducksalad plant response rating: 0
Duck salad; [11]
  Ducksalad plant response rating: 0
bamyardgrass; [8]
  Barnyardgrass plant response rating: 0
bamyardgrass; [9]
  Barnyardgrass plant response rating: 0
bamyardgrass; [10]
  Barnyardgrass plant response rating: 0
bamyardgrass; [11]
  Barnyardgrass plant response rating: 0

## CCC(C)N(C(=O)n1oc(=O)n(-c2ccccc2C)c1=O)c1ccc(F)cc1 (centres unmarked) [Compound 239]
crabgrass; [2]
  Crabgrass plant response rating: 10
crabgrass; [3]
  Plant response rating, Crabgrass: 10
crabgrass; [4]
  Crabgrass plant response rating: 0
crabgrass; [6]
  Crabgrass plant response rating: 7
crabgrass; Rate 250 g/ha, Postemergence
  Plant response rating (0 to 10; 0 is no effect, 10 is complete control), Crabgrass: 2
crabgrass; [7]
  Crabgrass plant response rating: 6
Purple nutsedge; [1]
  Nutsedge plant response rating: 0
Purple nutsedge; [3]
  Plant response rating, Nutsedge: 0
Purple nutsedge; [4]
  Nutsedge plant response rating: 0
Purple nutsedge; [6]
  Nutsedge plant response rating: 0
Purple nutsedge; Rate 250 g/ha, Postemergence
  Plant response rating (0 to 10; 0 is no effect, 10 is complete control), Nutsedge: 0
Purple nutsedge; [7]
  Nutsedge plant response rating: 0
Duck salad; [8]
  Ducksalad plant response rating: 0
Duck salad; [9]
  Ducksalad plant response rating: 0
Duck salad; [10]
  Ducksalad plant response rating: 0
Duck salad; [11]
  Ducksalad plant response rating: 0
bamyardgrass; [8]
  Barnyardgrass plant response rating: 0
bamyardgrass; [9]
  Barnyardgrass plant response rating: 0
bamyardgrass; [10]
  Barnyardgrass plant response rating: 0
bamyardgrass; [11]
  Barnyardgrass plant response rating: 0

## Cc1ccccc1-n1c(=O)on(C(=O)N(c2ccncc2)C(C)C)c1=O [Compound 301]
crabgrass; [1]
  Crabgrass plant response rating: 0
crabgrass; Preemergence, Rate 125 g/ha
  Crabgrass plant response rating (0 to 10 scale): 0
crabgrass; [2]
  Crabgrass plant response rating: 0
crabgrass; [3]
  Crabgrass plant response rating: 0
crabgrass; [12]
  Crabgrass plant response rating: 0
crabgrass; [13]
  Crabgrass plant response rating: 0
crabgrass; [14]
  Plant response rating, Crabgrass: 0
Purple nutsedge; [1]
  Nutsedge plant response rating: 0
Purple nutsedge; Preemergence, Rate 125 g/ha
  Nutsedge plant response rating (0 to 10 scale): 0
Purple nutsedge; [2]
  Nutsedge plant response rating: 0
Purple nutsedge; [3]
  Nutsedge plant response rating: 0
Purple nutsedge; [12]
  Nutsedge plant response rating: 0
Purple nutsedge; [13]
  Nutsedge plant response rating: 0
Purple nutsedge; [14]
  Plant response rating, Nutsedge: 0
Duck salad; [8]
  Ducksalad plant response rating: 0
Duck salad; [9]
  Ducksalad plant response rating: 0
Duck salad; [10]
  Ducksalad plant response rating: 0
Duck salad; [11]
  Ducksalad plant response rating: 0
bamyardgrass; [8]
  Barnyardgrass plant response rating: 0
bamyardgrass; [9]
  Barnyardgrass plant response rating: 0
bamyardgrass; [10]
  Barnyardgrass plant response rating: 0
bamyardgrass; [11]
  Barnyardgrass plant response rating: 0
